Assay results as given in US7314747B1, “SMRT co-repressors, transcriptional co-repressors that interact with nuclear hormone receptors” (The Salk Institute for Biological Studies, priority 1995, dated 2008).

Experiments:
[1] = biological target: T1, EcR:USP complex with SMRTER ERID1/ERID2 (Drosophila melanogaster, UniProt P34021); assay: In vitro GST pull-down of 35S-labeled EcR by GST-ERID1 / GST-ERID2; assay type: binding; conditions: 3 μM, when USP is present
T1 construct: made in house; host or cells: EcR and USP: TNT (Promega) coupled transcription-translation; GST fusions: E. coli DH5
T1 sequence (P34021 1-878): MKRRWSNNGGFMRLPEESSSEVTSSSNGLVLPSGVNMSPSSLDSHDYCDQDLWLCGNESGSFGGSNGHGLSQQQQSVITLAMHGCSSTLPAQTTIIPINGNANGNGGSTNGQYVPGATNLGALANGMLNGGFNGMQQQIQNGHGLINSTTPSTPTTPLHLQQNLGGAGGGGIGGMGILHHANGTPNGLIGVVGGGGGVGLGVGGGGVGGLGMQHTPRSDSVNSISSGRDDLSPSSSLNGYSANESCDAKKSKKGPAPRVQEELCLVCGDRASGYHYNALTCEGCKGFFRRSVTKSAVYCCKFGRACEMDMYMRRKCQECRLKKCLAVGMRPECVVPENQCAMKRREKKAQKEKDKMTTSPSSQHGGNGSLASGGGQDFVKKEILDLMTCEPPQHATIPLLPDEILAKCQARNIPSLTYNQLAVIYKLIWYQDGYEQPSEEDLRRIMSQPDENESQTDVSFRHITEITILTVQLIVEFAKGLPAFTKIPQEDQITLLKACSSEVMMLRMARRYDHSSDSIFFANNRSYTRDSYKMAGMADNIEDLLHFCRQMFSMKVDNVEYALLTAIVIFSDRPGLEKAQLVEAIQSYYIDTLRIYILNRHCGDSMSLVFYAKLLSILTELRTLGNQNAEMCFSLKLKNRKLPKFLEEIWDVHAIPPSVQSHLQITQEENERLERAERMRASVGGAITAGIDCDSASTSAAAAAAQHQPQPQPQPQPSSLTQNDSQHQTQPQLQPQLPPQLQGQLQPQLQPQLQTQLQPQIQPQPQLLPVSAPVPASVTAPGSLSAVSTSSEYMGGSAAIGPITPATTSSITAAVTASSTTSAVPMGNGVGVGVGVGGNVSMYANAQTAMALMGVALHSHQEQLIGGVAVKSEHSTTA
T1 sequence (P20153 1-508 partner): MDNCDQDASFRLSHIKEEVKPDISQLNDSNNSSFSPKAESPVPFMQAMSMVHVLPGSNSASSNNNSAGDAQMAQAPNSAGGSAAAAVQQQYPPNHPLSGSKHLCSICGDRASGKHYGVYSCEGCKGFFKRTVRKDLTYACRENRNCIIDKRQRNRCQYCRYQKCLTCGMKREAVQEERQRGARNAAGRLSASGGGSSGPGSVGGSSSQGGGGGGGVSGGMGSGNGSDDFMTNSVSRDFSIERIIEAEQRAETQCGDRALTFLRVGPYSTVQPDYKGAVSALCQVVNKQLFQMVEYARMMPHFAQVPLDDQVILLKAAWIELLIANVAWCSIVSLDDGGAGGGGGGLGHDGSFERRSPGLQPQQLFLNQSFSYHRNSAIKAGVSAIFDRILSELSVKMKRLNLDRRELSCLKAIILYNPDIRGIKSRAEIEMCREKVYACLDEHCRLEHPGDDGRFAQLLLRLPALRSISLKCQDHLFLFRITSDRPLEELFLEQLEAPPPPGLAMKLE
Method: Glutathione S-transferase fusion proteins, including GST-X, GST-ERID1 (amino acids 1698-2063 of SEQ ID NO:1), and GST-ERID2 (amino acids 2951-3038 of SEQ ID NO:1), were expressed in E. coli DH5 cells, and extracts were affinity purified by binding to glutathione Sepharose 4B beads. Bound proteins used as affinity matrices in pull-down experiments were first equilibrated with the binding buffer (20 mM HEPES [pH 7.9], 150 mM NaCl, 1 mM EDTA, 4 mM MgCl2, 1 mM DTT, 0.06% NP40, 10% Glycerol, 0.25 mM PMSF, 1 mg BSA). For pull-down assays using GST-ERID1 (amino acids 1698-2063 of SEQ ID NO:1) and GST-ERID2 (amino acids 2951-3038 of SEQ ID NO:1), additional hsp27EcRE (0.05 μg/ml) was added to the binding buffer. In this experiment, […] of 50% GST-protein beads slurry, containing approximately 1 μg of proteins, were incubated with 10 μl of 35S-methionine-labeled proteins in 300 μl of the binding buffer (with or without 3 μM of MurA as indicated) for 30 min at room temperature. After the incubation, beads were washed three times with the binding buffer (with or without ligand) and resuspended in SDS-PAGE sample buffer before loading. After electrophoresis, bound radio-labeled proteins were visualized by autoradiography. […]

[2] = biological target: T2, EcR interaction with E52 or SMRT (Drosophila melanogaster, UniProt P34021); assay: Yeast two-hybrid assay, E52-EcR or SMRT-EcR interaction; assay type: cell-based; conditions: 3 μM ligand
T2 construct: the region corresponding to amino acids 223-878 of EcRB1; expressed in transfected cells; host or cells: Y190 yeast cells
T2 sequence (P34021 223-878): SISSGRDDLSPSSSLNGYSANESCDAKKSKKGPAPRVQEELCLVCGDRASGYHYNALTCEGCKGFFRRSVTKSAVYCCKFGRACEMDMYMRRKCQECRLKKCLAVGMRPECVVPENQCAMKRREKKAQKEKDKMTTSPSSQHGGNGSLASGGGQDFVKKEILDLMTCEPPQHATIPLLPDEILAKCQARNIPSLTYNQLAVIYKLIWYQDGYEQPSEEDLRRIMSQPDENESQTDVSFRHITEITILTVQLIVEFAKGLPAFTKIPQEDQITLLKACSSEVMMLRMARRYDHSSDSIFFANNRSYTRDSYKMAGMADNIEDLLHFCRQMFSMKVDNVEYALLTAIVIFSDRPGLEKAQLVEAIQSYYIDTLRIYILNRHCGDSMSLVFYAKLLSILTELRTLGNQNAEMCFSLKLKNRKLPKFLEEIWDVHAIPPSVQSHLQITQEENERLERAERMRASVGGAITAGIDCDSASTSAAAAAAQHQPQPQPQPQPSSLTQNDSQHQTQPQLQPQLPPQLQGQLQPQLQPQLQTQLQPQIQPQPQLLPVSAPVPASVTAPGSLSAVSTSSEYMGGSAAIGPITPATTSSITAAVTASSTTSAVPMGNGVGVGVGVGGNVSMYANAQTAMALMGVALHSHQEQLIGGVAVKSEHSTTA
Method: Transformants were selected onto DO-Leu-Trp-His plates containing 40 mM 3-aminotriazole (Sigma) for 3-4 days. Surviving yeast colonies were picked as primary positives and restreaked on selection plates to isolate single clones. Activation domain plasmids were rescued from the selected positive transformants for further analysis. Each clone was evaluated by testing its potential interaction with several other nuclear receptors using the yeast two-hybrid assays. […] Quantitative liquid assay of β-galactosidase was performed on positive clones 16 hr after treating the yeast cells with no ligand, or with 3 μM ligand.

## CC(C)CC[C@@H](O)[C@](C)(O)[C@H]1CC[C@@]2(O)C3=CC(=O)[C@]4(O)C[C@@H](O)[C@@H](O)C[C@]4(C)[C@H]3[C@H](O)C[C@]12C [Muristerone A]
[1]
  effect of ligand on GST-ERID/EcR pull-down complex: disrupted
[2]
  dissociation of the interaction between E52 and EcR by ligand: not dissociated
  dissociation of the interaction between SMRT and EcR by ligand: not dissociated
